For data set [1], the target named is T1, Cholinesterase (Homo sapiens, UniProt P06276). Kind of data set: Inhibition of human serum BuChE using butyrylthiocholine iodide as substrate at 10 uM incubated for 10 mins followed by substrate addition by DTNB reagent based Ellman's method relative to control. For orientation: DTNB colorimetry detects thiols as they appear.
Data set [2] concerns the target T1, Cholinesterase. The data set can be described thus: Inhibition of human serum BuChE using butyrylthiocholine iodide as substrate incubated for 10 mins followed by substrate addition by DTNB reagent based Ellman's method.
Data set [3] addresses Acetylcholinesterase (Homo sapiens, UniProt P22303). Kind of data set: Inhibition of human erythrocytes AChE measured after 10 mins by Ellman's method.
Data set [4] relates to PC-12. The data set can be described thus: Neuroprotective activity against H2O2-induced rat PC12 cells assessed as protection against H2O2-induced apoptosis by measuring necrotic cells at 50 uM pretreated for 2 hrs followed by H2O2 addition and measured after 24 hrs by Annexin V-FITC/PI staining based flow cytometry analysis (reference value: 0.99 %). The conditions noted are these: time 26 hrs. In kind it is functional. For orientation: Flow cytometry measures light scatter and fluorescence of single cells or particles in a stream.

Data set [5] has as its system PC-12. Kind of data set: Neuroprotective activity against H2O2-induced rat PC12 cells assessed as protection against H2O2-induced apoptosis by measuring early apoptotic cells at 50 uM pretreated for 2 hrs followed by H2O2 addition and measured after 24 hrs by Annexin V-FITC/PI staining based flow cytometry analysis (reference value: 0.88 %). In kind it is functional. As to conditions: time 26 hrs.

Data set [6] can be described thus: Inhibition of H2O2-induced ROS release in rat PC12 cells assessed as mean fluorescence intensity at 50 uM preincubated for 2 hrs followed by H2O2 addition and measured after 24 hrs by DCFH-DA based flow cytometry analysis (reference value: 23904). The data set is classed as functional, PC-12. As to conditions: time 26 hrs.
In data set [7] the test system is PC-12. Kind of data set: Neuroprotective activity against H2O2-induced rat PC12 cells assessed as protection against H2O2-induced apoptosis by measuring late apoptotic cells at 50 uM pretreated for 2 hrs followed by H2O2 addition and measured after 24 hrs by Annexin V-FITC/PI staining based flow cytometry analysis (reference value: 7.26 %). The data set is classed as functional. As to conditions: time 26 hrs.

Data set [8] relates to PC-12. The data set can be described thus: Neuroprotective activity against H2O2-induced rat PC12 cells assessed as protection against H2O2-induced apoptosis by measuring viable cells at 50 uM pretreated for 2 hrs followed by H2O2 addition and measured after 24 hrs by Annexin V-FITC/PI staining based flow cytometry analysis (reference value: 90.8 %). The data set is classed as functional. As to conditions: time 26 hrs.

Data set [9] is described as follows: Cytotoxicity against rat PC12 cells assessed as cell viability at 50 uM preincubated for 24 hrs and measured after 4 hrs by CCK-8 assay. The data set is classed as toxicity, cell-based, PC-12. The conditions noted are these: time 28 hrs, read-out: Activity. For orientation: Tetrazolium assays rely on reduction of a dye to a coloured formazan, in cell work by metabolically active cells.

The subject of data set [10] is PC-12. The data set can be described thus: Cytoprotective against rat PC12 cells assessed as cell viability at 50 uM preincubated for 24 hrs and measured after 4 hrs by CCK-8 assay. In kind it is functional, cell-based.
Data set [11] concerns PC-12. Kind of data set: Antioxidant activity against H2O2-induced toxicity in rat PC12 cells at 12.5 uM preincubated for 2 hrs and measured after 24 hrs by CCK-8 assay. In kind it is functional, cell-based. The conditions noted are these: time 26.0 hrs.

From ChEMBL document CHEMBL6121005 (Eur J Med Chem, 2025) come the findings set out here.

Calls of active or inactive are those of the source. The rule behind the calls is not given here.

Sequence of Acetylcholinesterase (P22303 whole entry): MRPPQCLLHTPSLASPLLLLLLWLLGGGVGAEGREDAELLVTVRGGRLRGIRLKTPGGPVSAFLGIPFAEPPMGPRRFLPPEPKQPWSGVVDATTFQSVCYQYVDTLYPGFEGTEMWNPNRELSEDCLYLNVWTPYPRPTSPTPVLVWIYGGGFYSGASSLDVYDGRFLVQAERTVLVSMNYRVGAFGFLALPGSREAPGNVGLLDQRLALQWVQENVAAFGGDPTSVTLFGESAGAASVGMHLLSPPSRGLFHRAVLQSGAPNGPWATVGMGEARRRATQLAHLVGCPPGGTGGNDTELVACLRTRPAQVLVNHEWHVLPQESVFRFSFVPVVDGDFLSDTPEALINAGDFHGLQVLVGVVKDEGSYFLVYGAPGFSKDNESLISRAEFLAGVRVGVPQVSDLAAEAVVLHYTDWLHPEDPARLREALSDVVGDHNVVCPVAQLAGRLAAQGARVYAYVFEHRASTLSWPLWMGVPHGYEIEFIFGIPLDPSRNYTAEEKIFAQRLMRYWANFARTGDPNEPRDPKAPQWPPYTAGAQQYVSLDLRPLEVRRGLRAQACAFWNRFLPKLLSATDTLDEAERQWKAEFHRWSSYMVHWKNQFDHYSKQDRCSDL
T1 sequence (P06276 whole entry): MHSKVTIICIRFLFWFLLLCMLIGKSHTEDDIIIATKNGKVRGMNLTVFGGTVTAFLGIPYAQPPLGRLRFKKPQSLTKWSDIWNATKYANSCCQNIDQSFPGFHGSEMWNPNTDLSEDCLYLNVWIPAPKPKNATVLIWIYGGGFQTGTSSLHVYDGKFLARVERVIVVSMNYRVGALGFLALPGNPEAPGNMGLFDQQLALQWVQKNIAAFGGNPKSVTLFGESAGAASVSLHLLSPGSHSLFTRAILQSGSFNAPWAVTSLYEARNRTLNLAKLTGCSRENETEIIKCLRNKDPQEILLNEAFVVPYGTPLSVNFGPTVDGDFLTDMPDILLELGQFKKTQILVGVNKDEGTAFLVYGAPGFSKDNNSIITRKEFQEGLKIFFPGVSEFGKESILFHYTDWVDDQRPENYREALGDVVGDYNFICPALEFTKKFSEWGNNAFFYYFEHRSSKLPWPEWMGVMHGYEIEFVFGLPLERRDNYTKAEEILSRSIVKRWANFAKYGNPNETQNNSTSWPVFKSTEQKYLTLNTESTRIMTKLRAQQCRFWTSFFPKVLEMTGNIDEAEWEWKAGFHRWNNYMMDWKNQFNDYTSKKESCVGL

For the molecule `COc1ccc2c3c1O[C@H]1C[C@@H](OC(=O)NCc4ccc(F)cc4)C=C[C@@]31CCN(C)C2`, the inhibition in data set [1] is 12.7%.

In turn, `COc1ccc2c3c1O[C@H]1C[C@@H](OC(=O)NCc4ccccc4)C=C[C@@]31CCN(C)C2` came in with an inhibition in data set [1] of 10.4%.

For the molecule `COc1ccc2c3c1O[C@H]1C[C@@H](OCc4ccc(Cc5cccc(F)c5)cn4)C=C[C@@]31CCN(C)C2`, the inhibition in [1] was 92.3%. The half-maximal inhibitory concentration (IC50) in [2] came out at 743 nM.

Consider `COc1ccc2c3c1O[C@H]1C[C@@H](OC(=O)NCc4ccc(C#N)cc4)C=C[C@@]31CCN(C)C2`, for which, in data set [1], the inhibition was 2.57%.

Regarding `COc1ccc2c3c1O[C@H]1C[C@@H](OC(=O)NCc4ccc5[nH]ccc5c4)C=C[C@@]31CCN(C)C2`, the inhibition in [1] came to 3.54%.

The molecule `COc1ccc2c3c1O[C@H]1C[C@@H](OCc4ccc(Cc5ccccc5)cn4)C=C[C@@]31CCN(C)C2` returned an inhibition in [1] of 91.2%. The molecule also returned an IC50 in data set [2] of 1500 nM.

In data set [1], `COc1ccccc1Cc1ccc(CO[C@H]2C=C[C@@]34CCN(C)Cc5ccc(OC)c(c53)O[C@H]4C2)nc1` came in with an inhibition of 84.4%. Moreover, the IC50 in data set [3] is 3200 nM; in data set [2] it was 2660 nM.

In the case of `COc1ccc2c3c1O[C@H]1C[C@@H](OC(=O)NC4CCN(Cc5cccc(C(F)(F)F)c5)CC4)C=C[C@@]31CCN(C)C2`, in data set [1], the inhibition came to 25.1%. In data set [3], this molecule gave an IC50 of 601 nM.

The molecule `COc1ccc2c3c1O[C@H]1C[C@@H](OC(=O)NCc4ccc([N+](=O)[O-])cc4)C=C[C@@]31CCN(C)C2` had an inhibition in data set [1] of 6.23%.

Molecule `COc1ccc2c3c1O[C@H]1C[C@@H](OC(=O)NCc4ccc(F)cc4F)C=C[C@@]31CCN(C)C2` displayed an inhibition in [1] of 13.5%.

In data set [1], `COc1ccc2c3c1O[C@H]1C[C@@H](OC(=O)NC4CCN(Cc5ccc(F)cc5)CC4)C=C[C@@]31CCN(C)C2` gave an inhibition of 21%. The midpoint of inhibition in data set [3], the IC50, lay at 399 nM.

On to `COc1ccc(Cc2ccc(CO[C@H]3C=C[C@@]45CCN(C)Cc6ccc(OC)c(c64)O[C@H]5C3)nc2)cc1`, for which the inhibition in data set [1] was 87%. In addition, half-maximal inhibition in data set [2] (IC50) required 1310 nM.

Take `Oc1ccc(/C=C/c2cc(O)cc(O)c2)cc1` [RESVERATROL]: the Activity in data set [4] is 1.79%; in data set [5] it was 3.58%; in data set [7], 6.38%; in data set [8], 88.3%. For the same molecule, the Flu intensity in [6] is given as 29540.

In turn, `COc1ccc2c3c1O[C@H]1C[C@@H](OCc4ccc(Cc5ccc(Cl)cc5)cn4)C=C[C@@]31CCN(C)C2` returned an inhibition in data set [1] of 88.7%. In data set [2], this molecule displayed an IC50 of 1030 nM.

Take `COc1ccc2c3c1O[C@H]1C[C@@H](OC(=O)NC4CCN(Cc5ccc(C)cc5)CC4)C=C[C@@]31CCN(C)C2`: the inhibition in data set [1] came to 28.7%.

Turning to `COc1ccc2c3c1O[C@H]1C[C@@H](OC(=O)NC4CCN(Cc5cccc(F)c5)CC4)C=C[C@@]31CCN(C)C2`, the Activity in data set [4] is given as 1.27%; in data set [5] it was 5.71%; in [7], 10.3%; in data set [8], 82.7%. Also, in data set [9], the viability at 4 h, 50 µM is above 90%. Also, the Flu intensity in data set [6] was 52051. Also, in data set [1], the inhibition is 18.6%. The molecule also showed an IC50 in data set [3] of 419 nM. The result in [10] was Active.

As to `COc1ccc2c3c1O[C@H]1C[C@@H](OC(=O)NC4CCN(Cc5ccccc5F)CC4)C=C[C@@]31CCN(C)C2`, the inhibition in data set [1] was determined as 21.6%. Half-maximal inhibition in [3] (IC50) required 406 nM.

In turn, `COc1cccc(Cc2ccc(CO[C@H]3C=C[C@@]45CCN(C)Cc6ccc(OC)c(c64)O[C@H]5C3)nc2)c1` gave an inhibition in [1] of 88.2%. The molecule also showed an IC50 in data set [2] of 1070 nM.

For the molecule `COc1ccc2c3c1O[C@H]1C[C@@H](OC(=O)NC4CCN(Cc5ccc(OC(F)(F)F)cc5)CC4)C=C[C@@]31CCN(C)C2`, in data set [1], the inhibition stood at 26%. The same molecule gave an IC50 in [3] of 451 nM.

Consider `COc1ccc2c3c1O[C@H]1C[C@@H](OCc4ccc(Cc5ccc(C)cc5)cn4)C=C[C@@]31CCN(C)C2`, for which, in data set [1], the inhibition came to 87.4%. Also, the IC50 in data set [2] is 1350 nM.

For the molecule `COc1ccc2c3c1O[C@H]1C[C@@H](OC(=O)NCc4ccc(C(F)(F)F)cc4)C=C[C@@]31CCN(C)C2`, the inhibition in data set [1] stood at 14.9%.

Consider `COc1ccc(CNC(=O)O[C@H]2C=C[C@@]34CCN(C)Cc5ccc(OC)c(c53)O[C@H]4C2)cc1`, for which the inhibition in data set [1] was 2.97%.

In [1], `COc1ccc2c3c1O[C@H]1C[C@@H](OC(=O)NC4CCN(Cc5ccc([N+](=O)[O-])cc5)CC4)C=C[C@@]31CCN(C)C2` yielded an inhibition of 24.6%.

`COc1ccc2c3c1O[C@H]1C[C@@H](OC(=O)NCc4ccc(C)cc4)C=C[C@@]31CCN(C)C2` displayed an inhibition in [1] of 4.99%.

Consider `COc1ccc2c3c1O[C@H]1C[C@@H](OC(=O)NCc4cc(F)cc(F)c4)C=C[C@@]31CCN(C)C2`, for which the inhibition in [1] stood at 4.56%.

Take `COc1ccc2c3c1O[C@H]1C[C@@H](OC(=O)NCc4ccccc4F)C=C[C@@]31CCN(C)C2`: in data set [1], the inhibition amounted to 18.4%.

As to `COc1ccc2c3c1O[C@H]1C[C@@H](OC(=O)NCc4ccccc4C)C=C[C@@]31CCN(C)C2`, the inhibition in data set [1] is 9.54%.

Molecule `COc1ccc2c3c1O[C@H]1C[C@@H](OC(=O)NCc4ccc(OC(F)(F)F)cc4)C=C[C@@]31CCN(C)C2` displayed an inhibition in data set [1] of 18.2%.

For `COc1ccc2c3c1O[C@H]1C[C@@H](OC(=O)NC4CCN(Cc5ccc(C#N)cc5)CC4)C=C[C@@]31CCN(C)C2`, in data set [1], the inhibition was found to be 21.3%.

With `COc1ccc2c3c1O[C@H]1C[C@@H](OCc4ccc(Cc5cccc(Cl)c5)cn4)C=C[C@@]31CCN(C)C2`, the Activity was 1.45% in data set [4], 10.9% in [5], 15% in data set [7] and 72.4% in data set [8]. Moreover, in [9], the viability at 4 h, 50 µM is above 90%. Besides, the Flu intensity in data set [6] was 88808. The same molecule had an inhibition in [1] of 90.5%. Also, the half-inhibitory concentration (IC50) turned out to be 3390 nM in data set [3] and 913 nM in [2]. In addition, the result in data set [10] was Active.

`COc1ccc2c3c1O[C@H]1C[C@@H](OC(=O)NC4CCN(Cc5ccc(Cl)cc5)CC4)C=C[C@@]31CCN(C)C2` gave an inhibition in [1] of 30.2%.

As for `COc1ccc2c3c1O[C@H]1C[C@@H](OC(=O)NC4CCN(Cc5ccc(F)cc5F)CC4)C=C[C@@]31CCN(C)C2`, in [1], the inhibition was determined as 19.9%. Moreover, the IC50 in data set [3] turned out to be 1200 nM.

Consider `COc1ccc2c3c1O[C@H]1C[C@@H](OC(=O)NCc4ccc5ccccc5c4)C=C[C@@]31CCN(C)C2`, for which the inhibition in data set [1] is 6.44%.

In turn, `COc1ccc2c3c1O[C@H]1C[C@@H](OC(=O)NCc4cccc(F)c4)C=C[C@@]31CCN(C)C2` had an inhibition in [1] of 14.6%.

Take `COc1ccc2c3c1O[C@H]1C[C@@H](OC(=O)NC4CCN(Cc5ccccc5)CC4)C=C[C@@]31CCN(C)C2`: the Activity in data set [4] was 1.35%; in data set [5], 8.66%; in [11] it was “Dose-dependent-effect”; in data set [7], 10.7%; in data set [8], 79.3%. Moreover, the viability at 4 h, 50 µM in [9] was above 90%. Moreover, in [6], the Flu intensity is 76256. Besides, the inhibition in [1] worked out at 29.2%. This molecule returned an IC50 in [3] of 370 nM. Further, in data set [10], the outcome was Active.

For the molecule `COc1ccc2c3c1O[C@H]1C[C@@H](OCc4ccc(Cc5ccc(F)cc5)cn4)C=C[C@@]31CCN(C)C2`, in data set [1], the inhibition came to 90.3%. For the same molecule, the 50% inhibitory concentration (IC50) in data set [2] was 1010 nM.

For the molecule `COc1cc(CN2CCC(NC(=O)O[C@H]3C=C[C@@]45CCN(C)Cc6ccc(OC)c(c64)O[C@H]5C3)CC2)cc(OC)c1`, in [1], the inhibition was determined as 12.9%.

As a reminder, the inhibition is the share of the control response that was lost under treatment. By IC50 is commonly meant the concentration needed to halve the response being measured. Low values mean greater potency in that assay, high ones weaker potency in that assay.
